# Data taken from article PMC9127750, “Structure-based design of CDC42 effector interaction inhibitors for the treatment of cancer” (Cell reports, 2022).
# “And” between values parts separate entries of the source, which are not always exact repeats. Identical values can stand only once.
# Test system: WM3248 melanoma cells, 486 antibodies
# Assay: Reverse phase protein arrays (RPPA)
# Assay type: cell-based, Human
# From the text: Pellets were snap frozen in liquid nitrogen and shipped to MD Anderson Cancer Center core RPPA facility for RPPA analysis (Table S5). Three biological replicates for each sample were generated.
# Nomenclatures on the RPPA heatmaps: name_of_antibody.species_of_antibody.status_of_antibody. V - antibody validated; C - validation of antibody in progress; Q - antibody nonspecific; E – under evaluation; antibodies raised in M - mouse, G - goat, R - rabbit, or T - rat.
# [1] = Norm_20: replicates 1-3 and Average, relative to 0
# [2] = Norm_20, replicates 1-3 and Average, relative to Norm_0
compound,measurement,setting,value
"CN(C)c1cccc(Nc2cc(-c3ccccc3)nc(C3CCNCC3)n2)c1 [ARN22089, N1,N1-dimethyl-N3-(6-phenyl-2-(piperidin-4-yl)pyrimidin-4-yl)benzene-1,3-diamine]",Shc_pY317.R.C normalized RPPA signal,[1],0.757 and 1.584 and 1.301 and 1.214
same,Slfn11.G.C normalized RPPA signal,[1],1.108 and 1.363 and 1.188
same,Smac.M.Q normalized RPPA signal,[1],0.931 and 0.960 and 0.983 and 0.958
same,Smad1.R.V normalized RPPA signal,[1],0.987 and 0.977 and 1.047 and 1.004
same,Smad3.R.V normalized RPPA signal,[1],1.165 and 1.119 and 1.154
same,Smad4.R.V normalized RPPA signal,[1],1.296 and 1.077 and 0.835
same,Snail.M.Q normalized RPPA signal,[1],0.600 and 0.686 and 0.609 and 0.632
same,Sox2.R.V normalized RPPA signal,[1],1.375 and 1.408 and 0.996 and 1.260
same,Sox17.R.V normalized RPPA signal,[1],0.910 and 0.971 and 1.024 and 0.968
same,Src.M.V normalized RPPA signal,[1],0.856 and 0.994 and 0.844 and 0.898
same,Src_pY416.R.V normalized RPPA signal,[1],0.922 and 0.983 and 0.992
same,Src_pY527.R.V normalized RPPA signal,[1],1.101 and 1.696 and 1.289
same,Stat1_pY701.R.V normalized RPPA signal,[1],0.978 and 0.992 and 1.003
same,Stat3.R.C normalized RPPA signal,[1],0.916 and 0.933 and 0.984 and 0.944
same,Stat3_pY705.R.C normalized RPPA signal,[1],1.624 and 1.373 and 1.082 and 1.360
same,Stat5a.R.V normalized RPPA signal,[1],0.918 and 1.001 and 1.032
same,Stathmin.1.R.V normalized RPPA signal,[1],1.002 and 0.917 and 0.896 and 0.939
same,Syk.M.V normalized RPPA signal,[1],0.729 and 0.896 and 0.950 and 0.859
same,Synaptophysin.R.C normalized RPPA signal,[1],1.010 and 0.835 and 0.914 and 0.920
same,TAZ.R.V normalized RPPA signal,[1],0.593 and 0.609 and 0.746
same,TEAD.R.C normalized RPPA signal,[1],0.753 and 0.847 and 1.189 and 0.929
same,TFAM.R.V normalized RPPA signal,[1],1.017 and 0.908 and 0.988
same,TFRC.R.V normalized RPPA signal,[1],0.954 and 0.936 and 0.905
same,TIGAR.R.V normalized RPPA signal,[1],1.016 and 1.029 (2×)
same,TRAP1.M.V normalized RPPA signal,[1],0.880 and 0.858 and 0.987 and 0.908
same,TRIM24.R.C normalized RPPA signal,[1],0.971 and 1.220 and 0.935
same,TRIM25.R.C normalized RPPA signal,[1],0.761 and 0.842 and 1.250
same,TRIP13.R.V normalized RPPA signal,[1],0.937 and 1.026 and 0.990 and 0.984
same,Tau.M.C normalized RPPA signal,[1],1.361 and 0.904 and 1.112
same,Transglutaminase.M.V normalized RPPA signal,[1],0.939 and 1.702 and 2.431 and 1.691
same,"A.Raf.R.V RPPA signal, normalized",[2],1.150 and 0.931 and 1.016
same,"A.Raf_pS299.R.C RPPA signal, normalized",[2],0.948 and 1.046 and 0.962 and 0.985
same,"ACC1.R.C RPPA signal, normalized",[2],0.841 and 0.807 and 0.895
same,"ACC_pS79.R.V RPPA signal, normalized",[2],1.085 and 0.894 and 1.442 and 1.140
same,"ACLY_pS455.R.V RPPA signal, normalized",[2],0.968 and 1.117 and 1.143 and 1.076
same,"ACSL1.R.V RPPA signal, normalized",[2],0.997 and 1.027 and 1.096
same,"ACVRL1.R.C RPPA signal, normalized",[2],0.959 and 0.966 and 0.988
same,"ADAR1.M.V RPPA signal, normalized",[2],1.103 and 1.393 and 0.980 and 1.159
same,"ALKBH5.R.V RPPA signal, normalized",[2],1.265 and 1.161 and 1.050 and 1.159
same,"AMPK.a2_pS345.R.V RPPA signal, normalized",[2],0.925 and 1.020 and 1.006
same,"AMPKa.R.C RPPA signal, normalized",[2],0.976 and 1.132 and 1.050
same,"AMPKa_pT172.R.C RPPA signal, normalized",[2],1.665 and 1.252 and 2.191 and 1.703
same,"AR.R.V RPPA signal, normalized",[2],1.167 and 0.791 and 1.202 and 1.053
same,"ARID1A.R.C RPPA signal, normalized",[2],2.135 and 2.023 and 0.945 and 1.701
same,"ASNS.R.V RPPA signal, normalized",[2],1.259 and 1.098 (2×)
same,"ATM.R.V RPPA signal, normalized",[2],0.728 and 0.823 and 1.123 and 0.891
same,"ATM_pS1981.R.V RPPA signal, normalized",[2],0.946 and 1.124 and 1.011 and 1.027
same,"ATP5A.M.C RPPA signal, normalized",[2],1.004 and 1.426 and 2.191 and 1.541
same,"ATP5H.R.V RPPA signal, normalized",[2],1.249 and 1.351 and 1.098 and 1.232
same,"ATR.R.V RPPA signal, normalized",[2],0.925 and 0.998 and 0.989
same,"ATRX.R.C RPPA signal, normalized",[2],0.884 and 1.433 and 1.198 and 1.172
same,"ATR_pS428.R.C RPPA signal, normalized",[2],0.919 and 0.961 and 1.020
same,"AceCS1.R.V RPPA signal, normalized",[2],1.098 and 1.011 and 1.293 and 1.134
same,"Akt1.R.V RPPA signal, normalized",[2],0.716 and 0.687 and 1.263 and 0.889
same,"Akt1_pS473.R.V RPPA signal, normalized",[2],0.845 and 0.816 and 0.918
same,"Akt2.R.V RPPA signal, normalized",[2],0.702 and 0.698 and 0.824
same,"Akt2_pS474.R.C RPPA signal, normalized",[2],0.820 and 1.141 and 0.958
same,"Akt.R.V RPPA signal, normalized",[2],0.842 and 0.873 and 1.113 and 0.943
same,"Akt_pS473.R.V RPPA signal, normalized",[2],0.693 and 1.281 and 1.006
same,"Akt_pT308.R.V RPPA signal, normalized",[2],1.208 and 0.954 and 1.057
same,"Ambra1_pS52.R.C RPPA signal, normalized",[2],0.983 and 1.063 and 0.981 and 1.009
same,"Annexin.I.M.V RPPA signal, normalized",[2],0.955 and 0.906 and 1.304 and 1.055
same,"Annexin.VII.M.V RPPA signal, normalized",[2],0.988 and 0.859 and 0.972
same,"Atg3.R.V RPPA signal, normalized",[2],1.054 and 0.860 and 1.003 and 0.972
same,"Atg4B.R.C RPPA signal, normalized",[2],0.929 and 1.167 and 0.972 and 1.023
same,"Atg5.R.C RPPA signal, normalized",[2],1.021 and 0.787 and 1.106 and 0.971
same,"Atg7.R.V RPPA signal, normalized",[2],0.883 and 0.847 and 0.979 and 0.903
same,"Aurora.A.R.C RPPA signal, normalized",[2],1.019 and 1.110 and 1.013
same,"Aurora.ABC_pT288_pT232_pT198.R.C RPPA signal, normalized",[2],0.769 and 0.934
same,"Aurora.B.R.V RPPA signal, normalized",[2],1.525 and 1.546 and 1.302 and 1.458
same,"Axl.R.V RPPA signal, normalized",[2],0.924 and 0.799 and 1.335 and 1.019
same,"B7.H3.R.C RPPA signal, normalized",[2],1.111 and 0.745 and 0.965 and 0.940
same,"B7.H4.R.C RPPA signal, normalized",[2],0.904 and 0.914 and 0.952
same,"B.Raf.R.C RPPA signal, normalized",[2],0.818 and 0.836 and 1.274 and 0.976
same,"B.Raf_pS445.R.V RPPA signal, normalized",[2],0.809 and 0.807 and 1.065 and 0.893
same,"BAP1.M.V RPPA signal, normalized",[2],0.987 and 0.925 and 1.001
same,"BCL2A1.R.V RPPA signal, normalized",[2],0.937 and 1.262 and 1.127
same,"BMK1.Erk5_pT218_Y220.R.V RPPA signal, normalized",[2],0.876 and 0.918 and 0.861 and 0.885
same,"BRCA1.M.C RPPA signal, normalized",[2],1.226 and 1.030 and 1.116
same,"BRD4.R.V RPPA signal, normalized",[2],1.775 and 1.486 and 0.963 and 1.408
same,"Bad_pS112.R.V RPPA signal, normalized",[2],1.169
same,"Bak.R.C RPPA signal, normalized",[2],1.030 and 0.930 and 1.021 and 0.994
